Data as given in US11065232B2, “Dihydrotetrabenazine for the treatment of anxiety and psychoses” (ADEPTIO PHARMACEUTICALS LIMITED, priority 2017, dated 2021).

Experiments:
[1] = molecular target: T1, alpha 1A (h) (antagonist radioligand) (Homo sapiens, UniProt P35348); experiment: Receptor protein binding studies, alpha 1A
T1 sequence (P35348 1-466): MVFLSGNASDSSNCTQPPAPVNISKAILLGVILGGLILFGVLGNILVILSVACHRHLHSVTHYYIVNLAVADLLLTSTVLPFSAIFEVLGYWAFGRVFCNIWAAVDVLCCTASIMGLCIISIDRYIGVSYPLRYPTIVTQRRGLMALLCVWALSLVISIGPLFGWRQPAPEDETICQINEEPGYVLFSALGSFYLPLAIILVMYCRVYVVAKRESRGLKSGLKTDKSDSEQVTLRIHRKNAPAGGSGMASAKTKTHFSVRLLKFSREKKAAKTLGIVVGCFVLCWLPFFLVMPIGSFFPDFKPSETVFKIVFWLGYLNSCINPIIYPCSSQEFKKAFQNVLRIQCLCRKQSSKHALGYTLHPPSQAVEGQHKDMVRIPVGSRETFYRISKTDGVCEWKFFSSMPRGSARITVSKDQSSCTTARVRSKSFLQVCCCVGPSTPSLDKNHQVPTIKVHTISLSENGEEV
From the text: (§1) The four 3,11b trans-dihydrotetrabenazine isomers (+)-α, (−)-α, (+)-β and (−)-β were subjected to specific binding assays to test their ability to bind to the receptors and transporter proteins described below. The results are set out in Table 1

[2] = molecular target: T2, alpha 2C (h) (antagonist radioligand) (Homo sapiens, UniProt P18825); experiment: Receptor protein binding studies, alpha 2C
T2 sequence (P18825 1-462): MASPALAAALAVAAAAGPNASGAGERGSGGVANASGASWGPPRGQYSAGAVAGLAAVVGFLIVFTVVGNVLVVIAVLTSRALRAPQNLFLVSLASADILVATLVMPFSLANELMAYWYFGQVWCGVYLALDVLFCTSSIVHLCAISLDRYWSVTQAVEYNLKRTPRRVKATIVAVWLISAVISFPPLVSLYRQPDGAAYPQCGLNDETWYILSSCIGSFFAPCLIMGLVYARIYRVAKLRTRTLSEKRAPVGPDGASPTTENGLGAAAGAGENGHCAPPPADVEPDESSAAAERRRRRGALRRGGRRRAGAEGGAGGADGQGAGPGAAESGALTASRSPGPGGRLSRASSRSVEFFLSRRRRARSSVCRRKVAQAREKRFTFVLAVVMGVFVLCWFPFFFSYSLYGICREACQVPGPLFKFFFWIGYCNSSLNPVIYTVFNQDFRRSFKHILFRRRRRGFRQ
From the text: as §1

[3] = molecular target: D1 (h) (antagonist radioligand) (Homo sapiens, UniProt P21728); experiment: Receptor protein binding studies, D1
Sequence of D1 (h) (antagonist radioligand) (P21728 whole entry): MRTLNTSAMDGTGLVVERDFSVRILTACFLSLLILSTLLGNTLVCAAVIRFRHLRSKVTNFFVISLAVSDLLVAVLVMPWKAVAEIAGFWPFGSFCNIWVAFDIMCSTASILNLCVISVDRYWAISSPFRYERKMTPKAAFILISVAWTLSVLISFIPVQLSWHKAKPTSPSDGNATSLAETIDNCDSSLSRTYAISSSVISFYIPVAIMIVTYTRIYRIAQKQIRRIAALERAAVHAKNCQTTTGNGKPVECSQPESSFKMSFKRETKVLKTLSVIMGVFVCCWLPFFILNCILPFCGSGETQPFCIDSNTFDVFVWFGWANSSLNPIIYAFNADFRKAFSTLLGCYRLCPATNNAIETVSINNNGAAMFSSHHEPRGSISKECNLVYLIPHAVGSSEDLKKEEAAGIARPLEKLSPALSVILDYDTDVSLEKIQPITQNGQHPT
From the text: as §1

[4] = molecular target: D2S (h) (antagonist radioligand) (Homo sapiens, UniProt P14416); experiment: Receptor protein binding studies, D2S
Sequence of D2S (h) (antagonist radioligand) (P14416 1-414 isoform P14416-2): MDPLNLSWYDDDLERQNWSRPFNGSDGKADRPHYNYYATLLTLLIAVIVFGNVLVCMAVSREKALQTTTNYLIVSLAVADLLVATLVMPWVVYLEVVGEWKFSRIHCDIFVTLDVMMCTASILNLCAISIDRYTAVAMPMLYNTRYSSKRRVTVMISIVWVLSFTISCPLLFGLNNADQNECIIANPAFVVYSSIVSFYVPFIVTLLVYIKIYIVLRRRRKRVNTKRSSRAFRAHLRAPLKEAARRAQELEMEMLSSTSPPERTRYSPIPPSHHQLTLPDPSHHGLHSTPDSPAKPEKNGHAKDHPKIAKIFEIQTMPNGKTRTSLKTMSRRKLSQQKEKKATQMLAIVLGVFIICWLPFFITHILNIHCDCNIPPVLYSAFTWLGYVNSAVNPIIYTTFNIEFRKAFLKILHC
From the text: as §1

[5] = molecular target: D3 (h) (antagonist radioligand) (Homo sapiens, UniProt P35462); experiment: Receptor protein binding studies, D3
Sequence of D3 (h) (antagonist radioligand) (P35462 whole entry): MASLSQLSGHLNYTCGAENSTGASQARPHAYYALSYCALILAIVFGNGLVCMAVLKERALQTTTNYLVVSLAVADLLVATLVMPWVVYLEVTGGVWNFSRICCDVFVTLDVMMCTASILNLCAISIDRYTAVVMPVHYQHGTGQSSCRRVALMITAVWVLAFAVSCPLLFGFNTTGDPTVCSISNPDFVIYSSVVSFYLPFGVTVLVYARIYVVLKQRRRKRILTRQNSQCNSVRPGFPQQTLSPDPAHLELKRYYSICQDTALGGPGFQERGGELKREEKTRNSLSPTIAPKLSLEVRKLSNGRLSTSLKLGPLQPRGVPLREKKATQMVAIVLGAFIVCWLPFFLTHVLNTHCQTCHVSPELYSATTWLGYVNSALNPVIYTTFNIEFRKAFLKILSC
From the text: as §1

[6] = molecular target: T3, D4.4 (h) (antagonist radioligand) (Homo sapiens, UniProt P21917); experiment: Receptor protein binding studies, D4.4
T3 sequence (P21917 1-419): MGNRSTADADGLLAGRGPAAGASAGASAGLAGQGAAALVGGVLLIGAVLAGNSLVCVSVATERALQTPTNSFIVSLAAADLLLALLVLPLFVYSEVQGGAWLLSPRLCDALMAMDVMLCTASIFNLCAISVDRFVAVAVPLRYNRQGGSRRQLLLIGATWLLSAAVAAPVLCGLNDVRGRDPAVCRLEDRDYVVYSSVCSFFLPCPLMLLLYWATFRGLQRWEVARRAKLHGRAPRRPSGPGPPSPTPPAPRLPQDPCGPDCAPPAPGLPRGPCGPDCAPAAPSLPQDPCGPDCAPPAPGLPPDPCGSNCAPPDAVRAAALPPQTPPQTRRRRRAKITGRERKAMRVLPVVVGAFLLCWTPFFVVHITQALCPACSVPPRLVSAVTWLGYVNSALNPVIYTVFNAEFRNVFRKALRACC
From the text: as §1

[7] = molecular target: D5 (h) (antagonist radioligand) (Homo sapiens, UniProt P21918); experiment: Receptor protein binding studies, D5
Sequence of D5 (h) (antagonist radioligand) (P21918 whole entry): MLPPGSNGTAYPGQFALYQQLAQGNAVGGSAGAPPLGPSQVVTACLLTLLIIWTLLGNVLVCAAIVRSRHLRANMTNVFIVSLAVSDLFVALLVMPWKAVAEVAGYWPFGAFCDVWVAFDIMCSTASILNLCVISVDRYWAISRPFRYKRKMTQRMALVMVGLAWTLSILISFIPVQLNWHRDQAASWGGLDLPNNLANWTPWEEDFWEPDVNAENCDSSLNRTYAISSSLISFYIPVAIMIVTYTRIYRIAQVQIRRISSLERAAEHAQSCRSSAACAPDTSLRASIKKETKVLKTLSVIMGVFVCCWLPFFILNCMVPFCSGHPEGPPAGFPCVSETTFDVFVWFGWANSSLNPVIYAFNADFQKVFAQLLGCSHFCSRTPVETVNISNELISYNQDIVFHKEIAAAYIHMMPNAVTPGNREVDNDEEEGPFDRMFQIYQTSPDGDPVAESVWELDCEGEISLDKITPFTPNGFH
From the text: as §1

Dopamine D2L = Dopamine D2L (Homo sapiens, UniProt P14416); experiment: Receptor protein binding studies, Dopamine D2L
Sequence of Dopamine D2L (P14416 whole entry): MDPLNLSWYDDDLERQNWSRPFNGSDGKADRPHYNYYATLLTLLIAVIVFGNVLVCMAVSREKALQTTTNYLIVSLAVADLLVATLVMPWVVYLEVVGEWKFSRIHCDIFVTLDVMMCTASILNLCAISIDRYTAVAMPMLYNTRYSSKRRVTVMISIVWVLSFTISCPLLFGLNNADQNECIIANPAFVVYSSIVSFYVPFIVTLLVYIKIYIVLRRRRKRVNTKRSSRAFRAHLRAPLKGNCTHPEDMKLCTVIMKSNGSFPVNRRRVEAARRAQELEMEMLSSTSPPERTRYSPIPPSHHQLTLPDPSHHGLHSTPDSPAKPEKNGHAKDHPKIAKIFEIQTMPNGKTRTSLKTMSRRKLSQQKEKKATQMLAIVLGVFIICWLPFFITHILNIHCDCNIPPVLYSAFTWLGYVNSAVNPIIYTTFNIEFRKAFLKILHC
From the text: as §1

[8] = molecular target: T4, 5-HT1A(h) (agonist radioligand) (Homo sapiens, UniProt P08908); experiment: Receptor protein binding studies, 5-HT1A
T4 sequence (P08908 1-422): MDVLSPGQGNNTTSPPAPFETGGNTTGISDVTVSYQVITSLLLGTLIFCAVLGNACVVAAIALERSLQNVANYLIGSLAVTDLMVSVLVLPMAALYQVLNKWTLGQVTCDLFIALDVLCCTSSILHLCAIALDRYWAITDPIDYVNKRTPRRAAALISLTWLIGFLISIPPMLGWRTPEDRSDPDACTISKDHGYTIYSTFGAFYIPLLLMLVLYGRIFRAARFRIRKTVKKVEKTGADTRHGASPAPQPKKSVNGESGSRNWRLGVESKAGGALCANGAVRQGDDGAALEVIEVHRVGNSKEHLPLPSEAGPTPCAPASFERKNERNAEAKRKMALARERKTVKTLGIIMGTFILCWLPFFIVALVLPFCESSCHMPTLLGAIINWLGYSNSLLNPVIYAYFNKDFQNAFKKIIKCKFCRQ
From the text: as §1

[9] = molecular target: 5-HT2B (h) (agonist radioligand) (Homo sapiens, UniProt P41595); experiment: Receptor protein binding studies, 5-HT2B
Sequence of 5-HT2B (h) (agonist radioligand) (P41595 whole entry): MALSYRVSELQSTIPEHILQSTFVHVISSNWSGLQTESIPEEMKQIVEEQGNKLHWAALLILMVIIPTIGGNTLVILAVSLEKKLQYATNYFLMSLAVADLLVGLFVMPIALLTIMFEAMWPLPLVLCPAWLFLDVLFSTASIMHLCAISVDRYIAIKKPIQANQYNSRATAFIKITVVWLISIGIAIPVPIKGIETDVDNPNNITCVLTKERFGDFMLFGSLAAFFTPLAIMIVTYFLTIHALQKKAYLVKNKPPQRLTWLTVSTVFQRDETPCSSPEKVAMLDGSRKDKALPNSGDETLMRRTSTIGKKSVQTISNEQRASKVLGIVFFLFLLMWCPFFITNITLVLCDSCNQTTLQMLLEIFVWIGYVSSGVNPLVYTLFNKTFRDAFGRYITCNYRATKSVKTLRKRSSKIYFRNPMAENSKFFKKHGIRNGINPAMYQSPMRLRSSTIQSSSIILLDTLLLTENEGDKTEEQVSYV
From the text: as §1

[10] = molecular target: 5-HT4e (h) (antagonist radioligand) (Homo sapiens, UniProt Q13639); experiment: Receptor protein binding studies, 5-HT4e
Sequence of 5-HT4e (h) (antagonist radioligand) (Q13639 1-378 isoform Q13639-5): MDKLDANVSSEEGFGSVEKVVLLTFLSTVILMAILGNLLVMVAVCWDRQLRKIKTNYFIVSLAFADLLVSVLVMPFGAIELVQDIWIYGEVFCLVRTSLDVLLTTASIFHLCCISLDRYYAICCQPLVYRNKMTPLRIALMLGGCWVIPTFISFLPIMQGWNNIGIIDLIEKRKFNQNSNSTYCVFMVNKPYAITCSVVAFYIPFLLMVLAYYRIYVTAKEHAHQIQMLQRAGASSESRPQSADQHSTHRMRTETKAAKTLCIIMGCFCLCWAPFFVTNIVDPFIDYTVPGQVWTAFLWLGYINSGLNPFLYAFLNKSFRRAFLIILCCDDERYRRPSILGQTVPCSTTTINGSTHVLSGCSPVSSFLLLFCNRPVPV
From the text: as §1

5-HT5A(h) = 5-HT5A(h) (Homo sapiens, UniProt P47898); experiment: Receptor protein binding studies, 5-HT5A
Sequence of 5-HT5A(h) (P47898 whole entry): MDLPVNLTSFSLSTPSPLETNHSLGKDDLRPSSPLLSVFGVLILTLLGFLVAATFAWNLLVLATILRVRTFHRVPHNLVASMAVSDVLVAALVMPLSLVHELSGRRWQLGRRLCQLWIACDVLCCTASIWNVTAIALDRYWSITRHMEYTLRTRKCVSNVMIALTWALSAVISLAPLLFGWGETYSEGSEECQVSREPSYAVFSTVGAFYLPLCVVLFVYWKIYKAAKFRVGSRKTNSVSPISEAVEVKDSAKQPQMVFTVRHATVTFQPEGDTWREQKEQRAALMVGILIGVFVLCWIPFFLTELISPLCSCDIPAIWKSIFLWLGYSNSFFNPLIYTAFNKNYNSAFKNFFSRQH
From the text: as §1

[11] = molecular target: Sigma 1 (h) (agonist radioligand) (Homo sapiens, UniProt Q99720); experiment: Receptor protein binding studies, Sigma 1
Sequence of Sigma 1 (h) (agonist radioligand) (Q99720 whole entry): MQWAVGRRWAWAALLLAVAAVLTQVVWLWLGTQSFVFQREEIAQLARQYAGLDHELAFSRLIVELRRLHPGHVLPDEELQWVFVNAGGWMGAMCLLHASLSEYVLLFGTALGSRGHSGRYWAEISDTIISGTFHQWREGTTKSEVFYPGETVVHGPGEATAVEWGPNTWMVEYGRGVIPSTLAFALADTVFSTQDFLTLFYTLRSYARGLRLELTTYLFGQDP
From the text: as §1

[12] = molecular target: hERG (membrane preparation) (antagonist radioligand) (Homo sapiens, UniProt Q12809); experiment: Receptor protein binding studies, hERG
Sequence of hERG (membrane preparation) (antagonist radioligand) (Q12809 whole entry): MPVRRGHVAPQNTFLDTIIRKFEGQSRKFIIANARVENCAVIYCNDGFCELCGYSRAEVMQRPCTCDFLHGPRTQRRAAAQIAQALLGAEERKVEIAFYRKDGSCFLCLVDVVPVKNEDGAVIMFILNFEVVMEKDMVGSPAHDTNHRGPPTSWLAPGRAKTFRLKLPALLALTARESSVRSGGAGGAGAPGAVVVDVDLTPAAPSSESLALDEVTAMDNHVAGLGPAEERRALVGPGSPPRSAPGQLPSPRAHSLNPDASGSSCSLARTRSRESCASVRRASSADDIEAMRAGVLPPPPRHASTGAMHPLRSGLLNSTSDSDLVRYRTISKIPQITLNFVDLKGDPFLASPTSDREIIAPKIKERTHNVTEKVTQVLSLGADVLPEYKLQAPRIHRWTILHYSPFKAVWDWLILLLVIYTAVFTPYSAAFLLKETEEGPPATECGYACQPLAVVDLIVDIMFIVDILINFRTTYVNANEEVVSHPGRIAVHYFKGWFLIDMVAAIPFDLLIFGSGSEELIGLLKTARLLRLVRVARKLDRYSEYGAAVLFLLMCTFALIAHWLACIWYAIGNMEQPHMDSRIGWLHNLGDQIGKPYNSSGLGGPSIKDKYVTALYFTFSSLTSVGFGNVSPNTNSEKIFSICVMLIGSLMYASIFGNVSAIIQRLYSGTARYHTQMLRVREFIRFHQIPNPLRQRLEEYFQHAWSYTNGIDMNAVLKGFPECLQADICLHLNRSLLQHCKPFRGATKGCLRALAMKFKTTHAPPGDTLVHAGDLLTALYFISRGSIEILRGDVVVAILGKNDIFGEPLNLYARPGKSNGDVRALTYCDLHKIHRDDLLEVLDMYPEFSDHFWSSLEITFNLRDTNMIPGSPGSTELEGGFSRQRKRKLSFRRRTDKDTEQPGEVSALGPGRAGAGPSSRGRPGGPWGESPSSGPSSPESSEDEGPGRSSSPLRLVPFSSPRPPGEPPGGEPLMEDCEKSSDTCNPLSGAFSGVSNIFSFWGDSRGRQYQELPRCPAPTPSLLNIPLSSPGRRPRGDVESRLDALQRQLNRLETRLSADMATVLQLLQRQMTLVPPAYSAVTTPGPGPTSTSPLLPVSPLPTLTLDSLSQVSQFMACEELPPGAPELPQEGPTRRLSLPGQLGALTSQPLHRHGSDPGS
From the text: as §1

[13] = CONC 1.0E−05 (unit not given), 10 μM
[14] = CONC 1.0E−06 (unit not given), 1 μM

Substance | % Inhibition of specific binding ([1]; CONC 1.0E−05 (unit not given)) [%] | % Inhibition of specific binding ([1]; CONC 1.0E−06 (unit not given)) [%] | % Inhibition of specific binding ([2]; CONC 1.0E−05 (unit not given)) [%] | % Inhibition of specific binding ([2]; CONC 1.0E−06 (unit not given)) [%] | % Inhibition of specific binding ([3]; CONC 1.0E−05 (unit not given)) [%] | % Inhibition of specific binding ([3]; CONC 1.0E−06 (unit not given)) [%] | % Inhibition of specific binding ([4]; CONC 1.0E−05 (unit not given)) [%] | % Inhibition of specific binding ([4]; CONC 1.0E−06 (unit not given)) [%] | % Inhibition of specific binding ([5]; CONC 1.0E−05 (unit not given)) [%] | % Inhibition of specific binding ([5]; CONC 1.0E−06 (unit not given)) [%] | activity at the dopamine D4 receptor (in words) [6] | % Inhibition of specific binding [6, 13] [%] | % Inhibition of specific binding [6, 14] [%] | % Inhibition of specific binding ([7]; CONC 1.0E−05 (unit not given)) [%] | % Inhibition of specific binding ([7]; CONC 1.0E−06 (unit not given)) [%] | % Inhibition of specific binding (Dopamine D2L; CONC 1.0E−05 (unit not given)) [%] | % Inhibition of specific binding (Dopamine D2L; CONC 1.0E−06 (unit not given)) [%] | % Inhibition of specific binding ([8]; CONC 1.0E−05 (unit not given)) [%] | % Inhibition of specific binding ([8]; CONC 1.0E−06 (unit not given)) [%] | % Inhibition of specific binding ([9]; CONC 1.0E−05 (unit not given)) [%] | other results
(+)-β-dihydrotetrabenazine [(+)-Beta] | 33 | 2 | 12 | −7 | 8 | 0 | 7 | −8 | 12 | −18 | essentially inactive | 2 | −3 | −5 | −8 | 18 | 1 | 64 | 20 | −7 | % Inhibition of specific binding ([9]; CONC 1.0E−06 (unit not given)): −2%; % Inhibition of specific binding ([10]; CONC 1.0E−05 (unit not given)): 19%; % Inhibition of specific binding ([10]; CONC 1.0E−06 (unit not given)): −4%; % Inhibition of specific binding (5-HT5A(h); CONC 1.0E−05 (unit not given)): −13%; % Inhibition of specific binding (5-HT5A(h); CONC 1.0E−06 (unit not given)): −23%; % Inhibition of specific binding ([11]; CONC 1.0E−05 (unit not given)): 99%; % Inhibition of specific binding ([11]; CONC 1.0E−06 (unit not given)): 92%; % Inhibition of specific binding ([12]; CONC 1.0E−05 (unit not given)): 8%; % Inhibition of specific binding ([12]; CONC 1.0E−06 (unit not given)): 3%
(−)-α-dihydrotetrabenazine [(−)-Alpha] | 6 | 1 | 69 | 17 | 45 | 5 | 73 | 22 | 79 | 26 | significantly less active | 65 | 19 | 23 | −3 | 68 | 27 | 96 | 80 | 92 | % Inhibition of specific binding ([9]; CONC 1.0E−06 (unit not given)): 55%; % Inhibition of specific binding ([10]; CONC 1.0E−05 (unit not given)): 26%; % Inhibition of specific binding ([10]; CONC 1.0E−06 (unit not given)): 4%; % Inhibition of specific binding (5-HT5A(h); CONC 1.0E−05 (unit not given)): −6%; % Inhibition of specific binding (5-HT5A(h); CONC 1.0E−06 (unit not given)): −24%; % Inhibition of specific binding ([11]; CONC 1.0E−05 (unit not given)): 78%; % Inhibition of specific binding ([11]; CONC 1.0E−06 (unit not given)): 40%; % Inhibition of specific binding ([12]; CONC 1.0E−05 (unit not given)): 19%; % Inhibition of specific binding ([12]; CONC 1.0E−06 (unit not given)): 5%
(+)-α-dihydrotetrabenazine [(+)-Alpha] | 12 | 7 | 5 | 4 | −2 | 0 | 7 | −1 | 2 | −14 | essentially inactive | −7 | −3 | −8 | −7 | 14 | 10 | 83 | 38 | 0 | % Inhibition of specific binding ([9]; CONC 1.0E−06 (unit not given)): −4%; % Inhibition of specific binding ([10]; CONC 1.0E−05 (unit not given)): 40%; % Inhibition of specific binding ([10]; CONC 1.0E−06 (unit not given)): 2%; % Inhibition of specific binding (5-HT5A(h); CONC 1.0E−05 (unit not given)): −2%; % Inhibition of specific binding (5-HT5A(h); CONC 1.0E−06 (unit not given)): −26%; % Inhibition of specific binding ([11]; CONC 1.0E−05 (unit not given)): 96%; % Inhibition of specific binding ([11]; CONC 1.0E−06 (unit not given)): 64%; % Inhibition of specific binding ([12]; CONC 1.0E−05 (unit not given)): 33%; % Inhibition of specific binding ([12]; CONC 1.0E−06 (unit not given)): 2%
